Residue numbers refer to the chain shown, from its start.
Key:
[1] = test system: TASK-2-R438C; assay: Excised inside-out patch recording, TASK-2-R438C mutant; format: biochemical, Mus musculus; parameters: key to MTSET effect: ✓ under “MTSET effect” indicates a significant increase in current after treatment with the methanesulfonate reagent; — in all cases stands for no significant effect
Protocol: Mus musculus TASK-2 (GenBank accession No. AF319542) plasmid was that obtained from mouse kidney. The cDNAs was subcloned into the pCR3.1 vector. Mutations were made by site-directed mutagenesis into the pCR3.1 vector as previously described[69] and confirmed by sequencing. HEK-293 cells were cultured in Dulbecco’s modified Eagle’s medium (DMEM) and F12 Ham’s medium at a 1:1 ratio and supplemented with 10% fetal calf serum at 37 °C in 5% CO2. For electrophysiological experiments, transient transfections were performed by electroporation, using CD8 cotransfection to identify effectively transfected cells. […] Experiments were performed 4–8 h after electroporation. In experiments with the voltage-sensitive phosphatase TASK-2 or its mutants were co-electroporated with a pCR3.1-DrVSP-IRES-CD8 vector.
Recordings in the inside-out isolated patch configuration were performed in the gap-free mode at −60 mV. The inside aspect of the patch was bathed with a solution containing in mM: 10 KCl, 10 Glucose, 1 MgCl2, 10 EGTA, 1 Na3ATP, 0.1 GTP, 6.8 g/100 ml Sucrose, 10 Hepes/Tris, pH 7.4. The pipette contained in mM: 140 KCl, 10 Glucose, 6.8 g/100 ml Sucrose, 10 Hepes/Tris pH 7.4. For isolated patches, borosilicate capillaries (Harvard Apparatus GC150F-10 1.5 ODx0.86 ID) were fire polished to 4–5 MΩ and covered in beeswax. Acquisition was at 10 kHz with filter at 3 kHz (4-pole Bessel) and analysis was done with Clampfit 9.0 (Axon Instruments, Foster City, CA, USA). Traces shown are prints from crude Clampfit screen shots and quantification was done using the average currents were calculated at intervals using Clampfit after baseline adjustment.
Fig. S7. Concentration ependence for the inhibition of TASK-2 mutant R438C by
intracellular neomycin. Recording were obtained from excised inside-out patches of
membrane taken from a HEK-293 cells over-expressing TASK-2-R438C. The patches were
held at -60 mV in the presence of 1 mM intracellular ATP. Neomycin was increased
stepwise from 5 to 500 µM in the solution bathing the intracellular aspect of the membrane. […]

[2] = target: T1, TASK-2-R4C (Mus musculus, UniProt F6V9U5, R4C); assay: Excised inside-out patch recording, TASK-2-R4C mutant; format: biochemical; parameters: key to MTSET effect: ✓ under “MTSET effect” indicates a significant increase in current after treatment with the methanesulfonate reagent; — in all cases stands for no significant effect
T1 construct: expressed in transfected cells; host or cells: HEK-293
T1 sequence (F6V9U5 1-502 R4C): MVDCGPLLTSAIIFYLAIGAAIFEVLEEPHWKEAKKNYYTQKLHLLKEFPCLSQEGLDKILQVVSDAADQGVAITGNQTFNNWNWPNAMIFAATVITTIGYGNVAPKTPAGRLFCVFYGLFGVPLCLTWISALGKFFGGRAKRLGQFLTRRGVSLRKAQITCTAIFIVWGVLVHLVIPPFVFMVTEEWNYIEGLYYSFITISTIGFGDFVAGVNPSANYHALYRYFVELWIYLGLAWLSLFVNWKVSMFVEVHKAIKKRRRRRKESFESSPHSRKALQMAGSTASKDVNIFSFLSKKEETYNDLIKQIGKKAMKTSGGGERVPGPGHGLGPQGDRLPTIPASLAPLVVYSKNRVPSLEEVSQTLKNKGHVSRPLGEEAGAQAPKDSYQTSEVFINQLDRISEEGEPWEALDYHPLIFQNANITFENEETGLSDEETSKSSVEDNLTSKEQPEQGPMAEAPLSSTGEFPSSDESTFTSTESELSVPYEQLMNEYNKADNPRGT
Protocol: (§1) Figure 6 Scanning of potential sites of interaction of TASK-2 with PI(4,5)P2 by cysteine mutagenesis of intracellular basic residues. (A) Schematic representation of TASK-2 topology showing the sequences of segments of the protein predicted to be intracellular or intracellular-facing. Basic residues are highlighted in red. (B) Recording from an excised inside-out patch of membrane taken from a HEK-293 cell over-expressing TASK-2. The patch was held at −60 mV in the presence of 1 mM ATP. At the intervals indicated by the boxes the intracellular aspect of the membrane was exposed to 300 μM Neomycin and then to 100 μM TPeA. At the end of the TPeA period the patch was additionally exposed to 1 mM MTSET as shown by the black box. (C and D) experiments as in (B), but with inside-out membrane patches obtained from cells expressing the mutants TASK-2-H327C and TASK-2-K297C respectively. In D the reducing agent DTT was also added at 2 mM. (E) Summary of experiments comparing the current before and after treatment with MTSET. […]
(§2) Recordings in the inside-out isolated patch configuration were performed in the gap-free mode at −60 mV. […] Traces shown are prints from crude Clampfit screen shots and quantification was done using the average currents were calculated at intervals using Clampfit after baseline adjustment.

[3] = target: T2, TASK-2-H327C (Mus musculus, UniProt F6V9U5, H327C); assay: Excised inside-out patch recording, TASK-2-H327C mutant; format: biochemical; conditions: 1 mM, brief intracellular exposure in the presence of TPeA
T2 construct: expressed in transfected cells; host or cells: HEK-293
T2 sequence (F6V9U5 1-502 H327C): T1 sequence (F6V9U5 1-502 R4C) with C4R, H327C
Protocol: as §1, §2

[4] = 1 mM, in the presence of TPeA, inside-out patch

Effect of MTSET on TASK-2-R4C activity [2, 4]: not affected | MTSET effect ([2]; mutation R4C): —
SMILES: C[N+](C)(C)CCSS(C)(=O)=O.[Cl-] [MTSET, [2-(trimethylammonium)ethyl] methanethiosulfonate chloride]
Effect of MTSET on TASK-2-R438C activity [1, 4]: not affected | MTSET effect ([1]; mutation R438C): — | Effect of MTSET on TASK-2-H327C channel activity [3]: Neither WT nor H327C channel activity is affected

From paper PMC5371824, “Phosphatidylinositol (4,5)-bisphosphate dynamically regulates the K2P background K^+ channel TASK-2” (Scientific Reports, 2017)
